{
  "source": "patent US9527847B2",
  "about": "“Treatment of lupus, fibrotic conditions, and inflammatory myopathies and other disorders using PI3 kinase inhibitors” (INFINITY PHARMACEUTICALS, INC., priority 2012, dated 2016)",
  "key": {"B cell proliferation": {"tested_on": "B cell proliferation", "assay": "B cell proliferation EC50 (Table 3)", "type": "cell-based", "details": "in vitro"}, "PI3K β": {"target": "T1, PI3K β (Homo sapiens, UniProt P42338)", "T1 construct": "purchased Upstate", "T1 sequence (P42338 whole entry)": "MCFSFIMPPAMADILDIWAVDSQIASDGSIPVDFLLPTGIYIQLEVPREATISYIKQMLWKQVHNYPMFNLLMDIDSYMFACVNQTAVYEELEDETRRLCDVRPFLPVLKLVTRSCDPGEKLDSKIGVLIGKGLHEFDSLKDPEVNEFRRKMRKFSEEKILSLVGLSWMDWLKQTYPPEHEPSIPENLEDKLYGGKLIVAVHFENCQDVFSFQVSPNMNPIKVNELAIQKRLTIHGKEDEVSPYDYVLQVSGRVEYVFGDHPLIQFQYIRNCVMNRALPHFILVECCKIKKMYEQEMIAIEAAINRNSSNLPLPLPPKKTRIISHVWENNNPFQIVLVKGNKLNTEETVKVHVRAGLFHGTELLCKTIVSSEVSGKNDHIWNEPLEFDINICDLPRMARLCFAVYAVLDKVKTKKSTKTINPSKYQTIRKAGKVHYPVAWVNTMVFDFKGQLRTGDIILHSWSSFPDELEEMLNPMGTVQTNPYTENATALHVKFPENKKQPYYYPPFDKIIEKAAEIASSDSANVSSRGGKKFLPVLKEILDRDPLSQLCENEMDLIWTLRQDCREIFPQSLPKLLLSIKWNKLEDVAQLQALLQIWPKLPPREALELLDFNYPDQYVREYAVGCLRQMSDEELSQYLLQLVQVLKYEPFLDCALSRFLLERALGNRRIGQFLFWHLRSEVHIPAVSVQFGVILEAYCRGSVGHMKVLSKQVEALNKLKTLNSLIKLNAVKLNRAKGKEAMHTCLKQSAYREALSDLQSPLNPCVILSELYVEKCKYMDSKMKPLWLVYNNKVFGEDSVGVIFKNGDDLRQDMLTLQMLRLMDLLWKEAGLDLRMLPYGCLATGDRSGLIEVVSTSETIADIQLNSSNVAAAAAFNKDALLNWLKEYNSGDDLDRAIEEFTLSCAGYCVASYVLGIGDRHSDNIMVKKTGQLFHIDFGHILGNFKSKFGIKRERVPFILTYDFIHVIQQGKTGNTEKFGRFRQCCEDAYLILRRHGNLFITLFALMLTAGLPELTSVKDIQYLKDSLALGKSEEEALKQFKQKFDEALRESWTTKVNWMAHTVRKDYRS", "T1 sequence (P27986 whole entry partner)": "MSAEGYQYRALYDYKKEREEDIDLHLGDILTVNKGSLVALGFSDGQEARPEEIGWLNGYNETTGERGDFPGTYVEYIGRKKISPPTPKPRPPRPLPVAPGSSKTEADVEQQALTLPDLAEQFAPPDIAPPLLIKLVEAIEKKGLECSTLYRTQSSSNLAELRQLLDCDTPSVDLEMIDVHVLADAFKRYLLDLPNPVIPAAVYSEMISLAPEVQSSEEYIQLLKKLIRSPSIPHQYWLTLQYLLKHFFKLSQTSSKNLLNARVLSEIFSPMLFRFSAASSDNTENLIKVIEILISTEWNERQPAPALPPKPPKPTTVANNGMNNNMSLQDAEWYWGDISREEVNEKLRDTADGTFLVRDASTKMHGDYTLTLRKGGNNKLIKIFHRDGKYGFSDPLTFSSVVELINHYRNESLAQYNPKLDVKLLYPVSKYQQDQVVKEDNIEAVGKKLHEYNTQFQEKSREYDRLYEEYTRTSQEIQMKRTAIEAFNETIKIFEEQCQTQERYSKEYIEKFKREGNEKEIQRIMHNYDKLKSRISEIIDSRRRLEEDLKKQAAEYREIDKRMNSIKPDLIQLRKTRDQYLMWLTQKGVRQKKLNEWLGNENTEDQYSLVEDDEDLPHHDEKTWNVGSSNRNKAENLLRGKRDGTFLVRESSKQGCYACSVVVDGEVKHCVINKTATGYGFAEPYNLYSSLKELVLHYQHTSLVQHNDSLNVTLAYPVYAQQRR", "assay": "In vitro IC50, PI3K β (Table 3)", "type": "biochemical", "procedure": "(§1) An exemplary system is PI 3-Kinase (human) HTRF™ Assay from Upstate. […] The total reaction volume is approximately 20 μl per well. […] The reaction is stopped by adding 5 μl of Stop Solution per well and then 5 μl of Detection Mix is added per well."}, "PI3K γ": {"target": "T2, PI3K γ (Homo sapiens, UniProt P48736)", "T2 construct": "purchased Sigma", "T2 sequence (P48736 whole entry)": "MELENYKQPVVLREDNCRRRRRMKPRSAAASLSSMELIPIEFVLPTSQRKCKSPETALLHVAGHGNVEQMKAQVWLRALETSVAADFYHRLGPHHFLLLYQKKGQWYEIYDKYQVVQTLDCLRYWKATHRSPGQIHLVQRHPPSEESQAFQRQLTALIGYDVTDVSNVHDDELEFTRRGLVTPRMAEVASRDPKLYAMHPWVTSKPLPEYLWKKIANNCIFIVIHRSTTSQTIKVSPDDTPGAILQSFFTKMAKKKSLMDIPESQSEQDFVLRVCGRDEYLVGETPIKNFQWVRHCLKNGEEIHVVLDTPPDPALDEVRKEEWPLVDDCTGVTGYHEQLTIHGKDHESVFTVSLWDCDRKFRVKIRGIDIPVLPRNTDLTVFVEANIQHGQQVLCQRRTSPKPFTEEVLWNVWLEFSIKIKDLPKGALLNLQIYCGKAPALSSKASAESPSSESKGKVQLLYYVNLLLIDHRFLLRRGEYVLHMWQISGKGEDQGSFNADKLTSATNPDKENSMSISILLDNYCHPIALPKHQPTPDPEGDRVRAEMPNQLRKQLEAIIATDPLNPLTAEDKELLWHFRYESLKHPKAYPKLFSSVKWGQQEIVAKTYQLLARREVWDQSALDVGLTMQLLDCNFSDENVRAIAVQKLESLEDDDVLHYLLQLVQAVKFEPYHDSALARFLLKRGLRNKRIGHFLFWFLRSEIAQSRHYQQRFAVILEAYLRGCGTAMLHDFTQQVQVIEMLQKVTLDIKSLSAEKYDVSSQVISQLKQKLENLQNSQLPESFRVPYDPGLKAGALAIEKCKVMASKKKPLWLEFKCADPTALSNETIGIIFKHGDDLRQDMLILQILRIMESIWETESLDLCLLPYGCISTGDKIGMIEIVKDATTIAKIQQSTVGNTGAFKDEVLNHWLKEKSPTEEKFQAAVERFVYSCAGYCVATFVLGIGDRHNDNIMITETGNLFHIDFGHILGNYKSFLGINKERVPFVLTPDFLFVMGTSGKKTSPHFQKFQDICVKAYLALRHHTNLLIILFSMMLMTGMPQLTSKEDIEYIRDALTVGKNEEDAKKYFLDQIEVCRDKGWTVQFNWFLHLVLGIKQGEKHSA", "assay": "In vitro IC50, PI3K γ (Table 3)", "type": "biochemical", "procedure": "as §1"}, "PI3K α": {"target": "T3, PI3K α (Homo sapiens, UniProt P42336)", "T3 construct": "purchased Upstate", "T3 sequence (P42336 whole entry)": "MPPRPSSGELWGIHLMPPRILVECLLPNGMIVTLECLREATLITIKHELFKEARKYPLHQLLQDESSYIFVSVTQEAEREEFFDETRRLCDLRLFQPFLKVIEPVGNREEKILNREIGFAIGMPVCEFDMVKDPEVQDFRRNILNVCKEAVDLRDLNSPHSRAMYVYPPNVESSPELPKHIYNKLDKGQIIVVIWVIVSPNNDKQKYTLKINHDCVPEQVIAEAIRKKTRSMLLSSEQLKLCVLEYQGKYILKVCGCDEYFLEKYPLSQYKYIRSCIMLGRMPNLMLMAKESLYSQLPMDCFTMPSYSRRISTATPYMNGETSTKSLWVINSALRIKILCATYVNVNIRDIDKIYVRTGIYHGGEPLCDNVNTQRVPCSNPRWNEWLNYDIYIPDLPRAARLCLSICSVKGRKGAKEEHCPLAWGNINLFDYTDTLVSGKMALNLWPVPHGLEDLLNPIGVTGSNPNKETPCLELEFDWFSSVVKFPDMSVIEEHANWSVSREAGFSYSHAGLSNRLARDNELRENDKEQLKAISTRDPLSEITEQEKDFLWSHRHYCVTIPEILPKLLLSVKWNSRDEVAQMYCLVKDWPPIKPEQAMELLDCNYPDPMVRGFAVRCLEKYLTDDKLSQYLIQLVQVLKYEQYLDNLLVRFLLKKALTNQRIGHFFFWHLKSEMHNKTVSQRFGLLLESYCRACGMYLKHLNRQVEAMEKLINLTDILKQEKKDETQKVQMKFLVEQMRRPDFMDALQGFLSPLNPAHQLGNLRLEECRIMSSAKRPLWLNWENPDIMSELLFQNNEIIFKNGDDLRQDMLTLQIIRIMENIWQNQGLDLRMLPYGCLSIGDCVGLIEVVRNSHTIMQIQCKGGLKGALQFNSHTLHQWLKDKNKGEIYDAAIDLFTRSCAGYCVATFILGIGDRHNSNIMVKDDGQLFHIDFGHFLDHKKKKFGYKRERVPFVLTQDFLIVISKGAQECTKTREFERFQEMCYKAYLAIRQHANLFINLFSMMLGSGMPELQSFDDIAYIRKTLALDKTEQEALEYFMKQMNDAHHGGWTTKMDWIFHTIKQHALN", "T3 sequence (P27986 whole entry partner)": "as the sequence (P27986 whole entry partner) above", "assay": "In vitro IC50, PI3K α (Table 3)", "type": "biochemical", "procedure": "as §1"}, "NZBWF1/J mice": {"tested_on": "NZBWF1/J mice", "assay": "Murine NZB/W F1 lupus model", "type": "in vivo, mouse", "details": "2 mg/kg PO QD, vs vehicle", "from_the_text": "Female NZBWF1/J mice (n=60) that were 8 weeks old on arrival and weighed approximately 35-51 grams (mean 42 g) at enrollment (mouse age approx. 23 weeks) were obtained from The Jackson Laboratory, Bar Harbor, Me. (stock number 100008). Animals were identified by a distinct number of ink marks at the base of the tail delineating animal number. After enrollment, all cages were labeled with protocol number, group number, and animal numbers.\nMice were terminated at age 43 weeks (day 140).\nAll dose solutions were prepared to deliver in 10 ml/kg (0.3 ml/30 g mouse).\nBody weights were measured and recorded prior to study initiation for randomization, on the first day of dosing prior to dosing, and weekly throughout the study. Body weights were also recorded at scheduled termination points and as needed if test subjects appeared to decrease in weight by visual inspection. The animals were observed daily for significant clinical signs, morbidity and mortality.\nUrine from each animal was tested weekly (beginning at mouse age 23 weeks) for proteinuria using Clinitech Multistick test strips (Bayer).\nAt necropsy, animals were anesthetized with isoflorane and bled via cardiac puncture for serum (for clinical chemistry analysis) and plasma (for Anti-dsDNA ELISA and PK). Terminal urine was collected and assessed. Spleens and kidneys (paired) were collected, weighed, and placed in 10% NBF. Serum obtained at necropsy was sent to Antech Diagnostics for analysis. Terminal plasma samples were split with half being used for Anti-dsDNA ELISA and the other half being shipped to the sponsor.\nAnti-dsDNA IgG analysis was performed on days 0, 49, 98, and 140 (mouse age 23, 30, 37, and 43 weeks). Anti-dsDNA IgG levels were determined using an Anti-dsDNA IgG ELISA Kit (Alpha Diagnostic, kit #5120, lot #90903K4) following manufacturer's instructions.\nBlood samples for clinical chemistry evaluation were collected at termination via cardiac puncture from Isoflurane anesthetized animals into serum separator microtainer tubes. Serum was sent to Antech Diagnostics for analysis.\nThe following parameters were measured: Albumin (ALB), Albumin: Globulin ratio (A/G), Alkaline phosphatase (ALK), Alanine aminotransferase (ALT), Aspartate aminotransferase (AST), Calcium (CA), Magnesium (Mg), Phosphorous (P), Globulin (GLOB), Electrolytes (Sodium (Na), Potassium (K), Chloride (Cl)), Gamma glutamyltransferase (GGT), Total bilirubin (TBILI), Amylase (AMY), Lipase (LIP), Osmolality, Triglycerides (TRIG), Total cholesterol (CHOL), Urea nitrogen (BUN), Creatinine (CREAT), Glucose (GLU), Total protein (TP), and Creatinine kinase (CPK).\nHistopathologic evaluation was performed on kidneys. Kidneys from all surviving animals were examined microscopically by a board certified veterinary pathologist and observations were entered into a computer-assisted data retrieval system. Kidney sections were stained with Masson's Trichrome, or Hematoxylin and Eosin. To maintain blinding of the analysis, slides were labeled with the animal number with no reference to treatment group.\nKidneys were scored according to the following system (developed by Chan O, Madaio M P, Shlomchik M J. The roles of B cells in MRL/lpr murine lupus. Annals New York Academy of Sciences, 1997; 815:75-82), modified to suit the lesion severity.\n• 0=Normal. • 1=Focal or multifocal, minimal to mild, early proliferative. • 2=Multifocal mild to moderate or mild diffuse proliferative. • 3=Diffuse moderate proliferative with or without multifocal severe areas. • 4=Marked diffuse proliferative, with crescents/sclerosis, multifocal protein casts present. • 5=Severe diffuse proliferative, with crescents/sclerosis, diffuse protein casts present. […]"}, "mouse EAE model": {"tested_on": "mouse EAE model", "assay": "Experimental Autoimmune Encephalomyelitis (EAE) model, semi-therapeutic, 28 day", "type": "in vivo", "details": "FTY720 3 mg/kg QD p.o.", "procedure": "EAE was induced in 60 mice using Hooke Kit™ MOG35-55/CFA Emulsion PTX (Hooke Laboratories, Lawrence Mass.), catalog number EK-0110, lot number 0104, per manufacturer's recommended protocol, except that pertussis toxin was diluted with phosphate buffered saline to achieve 1.4× and 1.3× solution (starting from the 1.5× solution in the kit). This was done to optimize disease severity for this particular study.\nMice were injected subcutaneously, at two sites in the back, with the emulsion component of the kit (containing MOG35-55). One site of injection was in the area of the upper back, approximately 1 cm caudal of the neck line. The second site was in the area of the lower back, approximately 2 cm cranial of the base of the tail. Injection volume was 0.1 mL at each site. Within 2 hours of the injection of emulsion, and then again 24 hours after the injection of emulsion, the pertussis toxin component of the kit was administered intraperitoneally. Volume of each injection was 0.1 mL.\nVehicle for Group 2 (FTY720) was water and 2% ethanol. Vehicle for all other groups was water, 0.5% CMC (low viscosity), and 0.05% Tween80. Mice were dosed at the same time every day, +/−1 hour. The last day of dosing was Day 27 after immunization.\nReadouts were EAE scores and changes in body weight. Mice were scored daily from Day 7 to Day 28, and body weights were measured three times/week (Monday, Wednesday and Friday), starting on Day −1.\nEAE was scored on scale 0 to 5: • 0 No obvious changes in motor functions of the mouse in comparison to non-immunized mice. When picked up by the tail, the tail has tension and is erect. Hind legs are usually spread apart. When the mouse is walking, there is no gait or head tilting. • 1 Limp tail. When the mouse is picked up by the tail, instead of being erect, the whole tail drapes over finger. • 2 Limp tail and weakness of hind legs. When mouse is picked up by tail, legs are not spread apart, but held closer together. When the mouse is observed walking, it has a clearly apparent wobbly walk. • 3 Limp tail and complete paralysis of hind legs (most common); or limp tail with paralysis of one front and one hind leg; or all of: severe head tilting, walking only along the edges of the cage, pushing against the cage wall, and spinning when picked up by the tail. • 4 Limp tail, complete hind leg and partial front leg paralysis. Mouse is minimally moving around the cage but appears alert and feeding Usually, euthanasia is recommended after the mouse scores level 4 for 2 days. When the mouse is euthanized because of severe paralysis, score of 5 is entered for that mouse for the rest of the experiment. • 5 Complete hind and complete front leg paralysis, no movement around the cage; or mouse is spontaneously rolling in the cage; or mouse is found dead due to paralysis.\nAt the end of the study 3 luxol fast blue (LFB) stained sections and 3 H&E sections, from lumbar, thoracic, and cervical spinal cord of all mice in Groups 1, 2, 3, and 6 and the 3 naïve mice were prepared and analyzed.\nInflammatory foci were counted in each H&E stained section. Each group of approximately 20 cells was counted as one focus. Foci larger than 20 cells were counted based on an estimate of how many foci of 20 cells were present.\nThe demyelination score represents an estimate of demyelinated area for each section as follows. For LFB stained slides, the demyelinated area was estimated based on intensity of blue staining of myelin. For H&E stained sections, demyelinated area was estimated by looking for interruption of normal structure—pallor and vacuolation consistent with edema and demyelination, and dilated axons. • 0—no demyelination (less than 5% demyelinated area) • 1—5 to 20% demyelinated area • 2—20 to 40% demyelinated area • 3—40 to 60% demyelinated area • 4—60 to 80% demyelinated area • 5—80 to 100% demyelinated area.\nThe number of apoptotic cells in each of the three H&E sections was determined."}},
  "data": [
    {"smiles": "Cc1ccccc1-n1c(Cn2nc(I)c3c(N)ncnc32)cc2cccc(C)c2c1=O", "note": "[Compound 6]", "values": [
      {"measurement": "EC50", "setting": "B cell proliferation", "value": "< 100", "unit": "nM"}
    ]},
    {"smiles": "Cc1cccc2cc(Cn3nc(C#CCO)c4c(N)ncnc43)n(-c3ccccc3F)c(=O)c12", "note": "[Compound 7]", "values": [
      {"measurement": "IC50", "setting": "PI3K β", "value": "< 1000", "unit": "nM"},
      {"measurement": "EC50", "setting": "B cell proliferation", "value": "< 100", "unit": "nM"},
      {"measurement": "IC50", "setting": "PI3K γ", "value": "< 100", "unit": "nM"},
      {"measurement": "IC50", "setting": "PI3K α", "value": "< 10000", "unit": "nM"}
    ]},
    {"smiles": "Cc1ccccc1-n1c(Cn2nc(-c3cc(O)cc(F)c3)c3c(N)ncnc32)cc2cccc(C)c2c1=O", "note": "[Compound 8]", "values": [
      {"measurement": "IC50", "setting": "PI3K β", "value": "> 10000", "unit": "nM"},
      {"measurement": "EC50", "setting": "B cell proliferation", "value": "< 1000", "unit": "nM"}
    ]},
    {"smiles": "C[C@@H]1C[C@H]2[C@@H]3CCC4=CC(=O)C=C[C@]4(C)[C@@]3(F)[C@@H](O)C[C@]2(C)[C@@]1(O)C(=O)CO", "note": "[Dex, dexamethasone, reference compound]", "values": [
      {"measurement": "Glomerulonephritis score reduction", "setting": "NZBWF1/J mice; kidney histopathology", "value": 91, "unit": "%"},
      {"measurement": "Interstitial nephritis score reduction", "setting": "NZBWF1/J mice", "value": 95, "unit": "%"},
      {"measurement": "Kidney weight increase", "setting": "NZBWF1/J mice", "value": 20, "unit": "%"},
      {"measurement": "Perivascular inflammation score reduction", "setting": "NZBWF1/J mice", "value": 100, "unit": "%"},
      {"measurement": "Spleen weight reduction", "setting": "NZBWF1/J mice", "value": 76, "unit": "%"},
      {"measurement": "Summed histopathology scores reduction", "setting": "NZBWF1/J mice", "value": 88, "unit": "%"}
    ]},
    {"smiles": "CCCCCCCCc1ccc(CCC(N)(CO)CO)cc1", "note": "[FTY720, reference compound]", "values": [
      {"measurement": "MMS +/− SD", "setting": "mouse EAE model", "value": "1.65 +/− 1.23"},
      {"measurement": "Median Day of Onset", "setting": "mouse EAE model", "value": 11.5, "unit": "days"},
      {"measurement": "End % body weight +/− SD", "setting": "mouse EAE model; Day 27 relative to Day −1", "value": "110.0 +/− 7.4%"},
      {"measurement": "End score +/− SD", "setting": "mouse EAE model; Day 28", "value": "0.45 +/− 0.44"},
      {"measurement": "Inflammatory foci +/− SD", "setting": "mouse EAE model; per spinal cord section", "value": "0.3 +/− 0.4"},
      {"measurement": "Demyelination (LFB) +/− SD", "setting": "mouse EAE model; score per section", "value": "0.3 +/− 0.3"}
    ]}
  ]
}
